Key:
[1] = test system: MIA PaCa-2 human pancreatic cancer xenograft; assay: In vivo efficacy study of Compound-24 with Afatinib, MIA PaCa-2 xenograft; design: species or system nude mice
Protocol: Compound-24 (1 mg/kg; b.i.d.), Afatinib (12.5 mg/kg; q.d.) and Compound-24+Afatinib (Compound-24; 1 mg/kg; b.i.d+Afatinib; 12.5 mg/kg; q.d.).

[2] = test system: MIA PaCa-2 human pancreatic cancer xenograft; assay: In vivo efficacy study of Compound-24 with Ulixertinib (BVD-523), MIA PaCa-2 xenograft (tumor fragments); design: species or system nude mice; conditions: Compound-24 alone, 1 mg/kg b.i.d.
Protocol: MIA PaCa-2 tumor fragments were implanted subcutaneously in nude mice. […] Compound-24 (1 mg/kg; b.i.d.), BVD-523 (25 mg/kg; b.i.d.) and Compound-24+BVD-523 (Compound-24; 1 mg/kg; b.i.d+BVD-523; 25 mg/kg; b.i.d.).

[3] = test system: MIA PaCa-2 human pancreatic cancer xenograft; assay: In vivo efficacy study of Compound-24 with BI-3406, MIA PaCa-2 xenograft; conditions: Compound-24 alone, 1 mg/kg; day 15
From the text: The tumor-bearing mice were randomized once the tumors reached an average volume of approximately 155-159 mm^3 (Tumor volume range 107-248 mm^3).

Compound	% tumor growth inhibition ([1]; Afatinib alone, 12.5 mg/kg q.d.) [%]	% tumor growth inhibition ([1]; Compound-24 alone, 1 mg/kg b.i.d.) [%]	% tumor growth inhibition [2] [%]	% tumor growth inhibition [3] [%]
CN(C)C/C=C/C(=O)Nc1cc2c(Nc3ccc(F)c(Cl)c3)ncnc2cc1O[C@H]1CCOC1 [Afatinib, (E)-N-(4-(3-chloro-4-fluoroanilino)-7-[(3S)-oxolan-3-yl)oxoquinazolin-6-yl)-4-(dimethylamino)but-2-enamide, reference compound]	58.68±5.14			
Nc1nc2cc(CCC3=C[C@@H](n4ccc5c(N)ncnc54)[C@H](O)[C@@H]3O)cc(F)c2cc1Cl [Compound-24, (1S,2R,5R)-3-(2-(2-Amino-3-chloro-5-fluoroquinolin-7-yl)ethyl)-5-(4-amino-7H-pyrrolo[2,3-d]pyrimidin-7-yl)cyclopent-3-ene-1,2-diol]		48.03±5.75	58.83±9.92	47.88±12.12

From patent US12447152B2, “Pharmaceutical combination of PRMT5 inhibitors” (Lupin Limited, priority 2019, dated 2025)
